Data taken from patent US20260327211A1, “MODULATORS OF A POTASSIUM CHANNEL AND OF TRPV1 CHANNEL AND USES THEREOF” (Bsense Bio Therapeutics Ltd., priority 2023, published 2026).
“Also recorded” adds a separate entry of the source. Blank lines part the entries; values can stand above or below the compound they belong to.

Legend:
[1] = tested on: human sensory neurons; assay: Human NPC-derived sensory neurons, spontaneous activity; format: cell-based; settings: 5 μM
Protocol: Cell culture and differentiation: Human PSC-derived neural progenitor cells (Stem Cell Catalog No. 70901 and 70902) were cultured and expanded on Matrigel coated 6-wells plates, using neuronal progenitor medium containing: Neurobasal media supplemented by non-essential amino-acids, 1%; Glutamax, 1%; B27, 2%, FGF2, 20 ng/mL). hNPC were then plated onto PDL and Matrigel coated 12 mm coverglass at a density of about 50,000 cells/well of a 6 well, in DMEM/F12; 10% KSR; 1% P/S and A83-01 (2 μM) from days 0-5. From days 0-9 the medium contained also CHIR99021 (6 μM). From Day 3-9 the medium included RO4929097 (2 μM) and SU5402 (3 μM). […]
Electrophysiology: To characterize the neuronal properties with electrophysiology recordings, round small neurons (20-40 μm in diameter) were selected from day 31 and onwards. Cells were monitored for their polarized negative membrane potential and for their ability to evoke consistent spikes train responses to repeated positive current injections as a mark of achieving electrical maturation before testing the effect of the tested compounds on neuronal excitability. Membrane excitability was monitored using current clamp. […]
The inhibitory potency of the newly designed compounds as described herein was evaluated based on their ability to reduce the spontaneous neuronal activity.

[2] = tested on: rat DRG neurons; assay: Rat DRG neurons, current-evoked action potential firing; format: cell-based
Text: rDRGs isolation and primary cell culture: Briefly, rat DRGs from all spinal levels were carefully removed and collected in HBSS on ices, connective tissue of the epineurium surrounding the ganglion was removed and cells were dissociated using Collagenase-II and trypsin dissociation solutions. DRGs were dissociated further, passed through glass Pasteur pipettes to obtain single cells. Then dissociation solution was changed to 5% FBS containing DRG neuronal culture medium and plated onto ECL coated 12 mm cover glass.
Additional rDRGs experiments were performed using Lonza primary neonatal rat (Sprague Dawley neonatal; P2,3) DRG neurons (R-DRG-505, Lonza) plated and cultured according to the manufacturer.
Electrophysiology: Cells were used for electrophysiological recording at least 48 hours following rDRG isolation or at least 5 days following cryopreserved rDRG thawing. Round small neurons (20-40 μm in diameter) were selected for electrophysiology recordings, to select for small nociceptive neurons that propagate pain sensation in vivo and that are expressing both Kv7.2/3 and TRPV1 targets. Membrane excitability was monitored using current clamp configuration of the whole-cell patch-clamp technique. Positive current steps of different amplitude were injected (400 ms) to induce spikes trains before and following compound application.

[3] = tested on: rat DRGs; assay: NGF-treated rat DRG neuropathic model, capsaicin-induced tetanic burst; format: cell-based; settings: NGF 100 ng/ml pretreated
Protocol: DRGs treated with NGF show tetanic action potential burst in response to CAP application, mimicking neuropathic like response. See, Background Art FIG. 8A. NGF enhances TRPV1 function using Calcium-dependent fluorescence, F, relative to maximal fluorescence, Fmax, as a function of time from a single HEK293 cell stably transfected with TrkA and transiently transfected with hTRPV1. Pulses of capsaicin (100 nM, applied as shown at top) elicited submaximal increases in [Ca]i. Exposure to NGF (100 ng/mL, see top) enhanced the capsaicin induced calcium increase. Arrows show responses used for calculation of sensitization ratio.

[4] = tested on: MIA-OA rats; assay: Dynamic weight bearing in MIA-OA rats; format: in vivo, rat; settings: 100 mg/kg (naproxen 30 mg/kg), 6 hours post-dose
Protocol: Monosodium iodoacetate-induced osteoarthritis (MIA-OA): The animals were anaesthetized using an Isoflurane+O2 mixture. Then 50 μl of MIA at a concentration of 60 mg/mL was injected into the right knee joint using a 30 G needle. On study days 13 and 14 following MIA injection, the animals' dynamic weight bearing and response to von Frey filaments were measured.
Dynamic Weight Bearing (DWB): DWB study was performed using the DWB2 apparatus (Bioseb, Paris, France). The rats were placed in a transparent cage containing a matrix comprising around 2000 high-precision force sensors embedded in its floor where they were allowed to move freely. The force sensors measured the weight distribution on each of the four paws of the animal in grams. The animal was filmed from above using a high-definition camera, and the video feed was analyzed in real-time during the test using tracking software, allowing a precise analysis of the animal's posture and hind paws identification. Out of 5 minutes of animal behavior recording, a segment of 2 minutes was analyzed. Once the analysis was completed, the software provided the weight distribution of each hind paw as the main readout and the ratio between the injured and intact hind paws was then calculated.

[5] = biological target: T1, muscarinic m2 receptor (Homo sapiens, UniProt P08172); assay: Functional selectivity panel, muscarinic m2 receptor; format: biochemical
T1 construct: Eurofins DiscoverX, USA
T1 sequence (P08172 whole entry): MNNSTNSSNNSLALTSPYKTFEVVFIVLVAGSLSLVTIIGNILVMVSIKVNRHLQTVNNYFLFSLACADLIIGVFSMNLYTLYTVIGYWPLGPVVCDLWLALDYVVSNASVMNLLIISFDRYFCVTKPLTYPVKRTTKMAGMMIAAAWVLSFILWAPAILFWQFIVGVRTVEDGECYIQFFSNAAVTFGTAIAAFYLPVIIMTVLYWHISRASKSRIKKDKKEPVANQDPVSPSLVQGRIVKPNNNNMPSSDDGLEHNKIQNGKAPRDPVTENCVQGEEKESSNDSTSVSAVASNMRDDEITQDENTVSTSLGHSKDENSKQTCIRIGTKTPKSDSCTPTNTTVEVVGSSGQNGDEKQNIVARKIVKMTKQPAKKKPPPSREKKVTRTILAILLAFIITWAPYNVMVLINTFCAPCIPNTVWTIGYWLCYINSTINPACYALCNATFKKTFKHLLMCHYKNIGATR
Protocol: (§1) A broad panel of 78 recombinant targets was tested for pharmacologic activity in vitro through a variety of functional assays (Eurofins DiscoverX, USA), as part of the National Institute of Neurological Disorders and Stroke (NINDS) Preclinical Screening Platform for Pain (PSPP) program. The biological targets for the in vitro profiling have been selected based on avoiding opioid receptor stimulation and targets known to be associated with adverse events or targeted by drugs of abuse. […] For each test, a reference compound was evaluated at the target of interest as a positive control.

[6] = tested on: rats; assay: Modified Irwin test; format: in vivo, rat; settings: up to 300 mg/kg, male and female
[7] = tested on: Bradykynin B1-2; assay: Functional screening panel, Bradykynin B1-2; format: biochemical; settings: up to 10 micromolar
Protocol: as §1

[8] = biological target: Cav1.2 (Homo sapiens, UniProt Q13936); assay: Functional screening panel, Cav1.2; format: biochemical; settings: read-out: IC/EC50 Cav1.2
Cav1.2, sequence (Q13936 whole entry): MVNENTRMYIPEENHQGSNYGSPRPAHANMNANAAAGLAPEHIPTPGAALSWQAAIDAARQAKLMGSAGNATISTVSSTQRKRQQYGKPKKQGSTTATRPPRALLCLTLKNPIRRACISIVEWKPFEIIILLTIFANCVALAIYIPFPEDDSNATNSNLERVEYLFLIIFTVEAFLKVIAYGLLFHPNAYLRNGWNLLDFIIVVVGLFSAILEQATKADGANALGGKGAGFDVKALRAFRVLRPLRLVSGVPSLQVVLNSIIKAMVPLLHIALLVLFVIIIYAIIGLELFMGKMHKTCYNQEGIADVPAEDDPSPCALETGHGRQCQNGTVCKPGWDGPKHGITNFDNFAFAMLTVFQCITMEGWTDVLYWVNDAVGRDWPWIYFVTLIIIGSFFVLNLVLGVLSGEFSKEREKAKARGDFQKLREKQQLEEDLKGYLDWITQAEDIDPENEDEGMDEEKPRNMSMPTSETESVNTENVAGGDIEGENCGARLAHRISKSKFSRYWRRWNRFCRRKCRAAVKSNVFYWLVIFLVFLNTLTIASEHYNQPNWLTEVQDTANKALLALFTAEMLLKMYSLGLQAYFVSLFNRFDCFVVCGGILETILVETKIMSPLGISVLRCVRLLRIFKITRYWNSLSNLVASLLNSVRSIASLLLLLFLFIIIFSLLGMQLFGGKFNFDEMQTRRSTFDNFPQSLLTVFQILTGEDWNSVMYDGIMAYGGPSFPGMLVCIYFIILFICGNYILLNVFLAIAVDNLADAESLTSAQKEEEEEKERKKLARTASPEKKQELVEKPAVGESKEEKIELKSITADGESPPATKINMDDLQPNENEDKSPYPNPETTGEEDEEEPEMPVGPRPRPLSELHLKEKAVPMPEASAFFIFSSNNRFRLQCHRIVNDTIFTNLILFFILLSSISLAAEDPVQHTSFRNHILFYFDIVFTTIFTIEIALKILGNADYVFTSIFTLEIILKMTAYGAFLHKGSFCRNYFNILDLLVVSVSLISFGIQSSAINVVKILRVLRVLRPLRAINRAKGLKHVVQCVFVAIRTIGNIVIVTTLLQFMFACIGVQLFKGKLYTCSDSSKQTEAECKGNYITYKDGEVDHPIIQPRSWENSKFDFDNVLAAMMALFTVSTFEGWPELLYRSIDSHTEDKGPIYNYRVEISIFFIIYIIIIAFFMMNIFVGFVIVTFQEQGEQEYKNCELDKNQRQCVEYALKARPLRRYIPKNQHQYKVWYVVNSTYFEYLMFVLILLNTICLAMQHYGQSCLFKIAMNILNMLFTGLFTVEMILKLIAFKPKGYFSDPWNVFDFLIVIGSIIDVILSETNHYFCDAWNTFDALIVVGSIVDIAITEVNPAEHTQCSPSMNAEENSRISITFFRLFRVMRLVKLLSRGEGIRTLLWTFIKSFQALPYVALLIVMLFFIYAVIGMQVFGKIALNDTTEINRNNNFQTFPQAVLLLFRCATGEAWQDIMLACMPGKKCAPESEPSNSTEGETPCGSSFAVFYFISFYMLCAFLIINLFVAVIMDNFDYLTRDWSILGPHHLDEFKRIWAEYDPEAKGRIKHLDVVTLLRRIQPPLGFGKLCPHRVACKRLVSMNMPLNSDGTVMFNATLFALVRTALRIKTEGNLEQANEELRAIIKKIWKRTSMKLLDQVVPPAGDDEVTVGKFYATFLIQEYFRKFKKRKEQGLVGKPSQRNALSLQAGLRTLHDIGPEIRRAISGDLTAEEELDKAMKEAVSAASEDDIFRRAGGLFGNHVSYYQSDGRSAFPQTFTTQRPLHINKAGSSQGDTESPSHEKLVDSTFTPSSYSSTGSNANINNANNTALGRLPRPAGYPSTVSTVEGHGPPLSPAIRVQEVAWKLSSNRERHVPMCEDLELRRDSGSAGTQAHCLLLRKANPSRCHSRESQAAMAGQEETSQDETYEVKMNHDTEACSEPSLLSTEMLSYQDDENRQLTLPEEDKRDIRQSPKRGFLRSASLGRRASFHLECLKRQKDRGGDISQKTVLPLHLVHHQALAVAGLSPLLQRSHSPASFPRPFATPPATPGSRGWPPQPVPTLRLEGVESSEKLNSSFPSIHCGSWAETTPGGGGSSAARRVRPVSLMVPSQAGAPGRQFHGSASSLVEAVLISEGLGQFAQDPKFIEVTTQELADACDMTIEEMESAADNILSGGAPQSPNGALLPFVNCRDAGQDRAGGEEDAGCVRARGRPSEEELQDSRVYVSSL
Cav1.2, sequence (P54289 25-944 partner limits assumed): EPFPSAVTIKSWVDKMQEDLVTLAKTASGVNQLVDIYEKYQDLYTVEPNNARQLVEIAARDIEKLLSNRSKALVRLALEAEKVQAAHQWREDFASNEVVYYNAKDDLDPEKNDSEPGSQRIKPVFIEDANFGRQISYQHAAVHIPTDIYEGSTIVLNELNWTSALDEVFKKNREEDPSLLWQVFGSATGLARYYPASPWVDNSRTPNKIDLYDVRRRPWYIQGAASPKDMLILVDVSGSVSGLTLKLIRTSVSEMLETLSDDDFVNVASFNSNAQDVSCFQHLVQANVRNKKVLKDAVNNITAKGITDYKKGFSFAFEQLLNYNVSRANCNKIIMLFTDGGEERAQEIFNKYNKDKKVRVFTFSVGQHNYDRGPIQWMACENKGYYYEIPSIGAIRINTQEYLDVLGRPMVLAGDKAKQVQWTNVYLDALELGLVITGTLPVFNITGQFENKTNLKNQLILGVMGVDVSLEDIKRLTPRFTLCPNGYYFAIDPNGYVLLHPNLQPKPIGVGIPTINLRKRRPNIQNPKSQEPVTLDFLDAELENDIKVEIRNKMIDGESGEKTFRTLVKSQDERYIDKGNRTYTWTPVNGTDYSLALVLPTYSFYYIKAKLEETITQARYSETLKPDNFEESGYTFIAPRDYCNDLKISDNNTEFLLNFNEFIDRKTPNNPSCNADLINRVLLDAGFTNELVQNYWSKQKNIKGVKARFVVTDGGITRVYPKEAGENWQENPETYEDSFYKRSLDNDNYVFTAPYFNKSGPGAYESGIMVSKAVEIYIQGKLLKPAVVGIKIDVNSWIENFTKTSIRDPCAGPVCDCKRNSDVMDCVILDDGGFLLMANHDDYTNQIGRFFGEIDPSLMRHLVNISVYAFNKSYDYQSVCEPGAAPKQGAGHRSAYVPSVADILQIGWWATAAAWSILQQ
Cav1.2, sequence (P54289 945-1103 partner limits assumed): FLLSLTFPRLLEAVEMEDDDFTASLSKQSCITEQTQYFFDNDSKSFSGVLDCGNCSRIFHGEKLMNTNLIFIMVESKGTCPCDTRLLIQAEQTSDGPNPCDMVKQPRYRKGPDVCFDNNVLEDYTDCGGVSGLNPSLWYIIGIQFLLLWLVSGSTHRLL
Protocol: as §1

[9] = biological target: OATP2B1 (Homo sapiens, UniProt O94956); assay: Transporter substrate, OATP2B1; format: in vitro ADME; settings: role: substrate
OATP2B1, sequence (O94956 whole entry): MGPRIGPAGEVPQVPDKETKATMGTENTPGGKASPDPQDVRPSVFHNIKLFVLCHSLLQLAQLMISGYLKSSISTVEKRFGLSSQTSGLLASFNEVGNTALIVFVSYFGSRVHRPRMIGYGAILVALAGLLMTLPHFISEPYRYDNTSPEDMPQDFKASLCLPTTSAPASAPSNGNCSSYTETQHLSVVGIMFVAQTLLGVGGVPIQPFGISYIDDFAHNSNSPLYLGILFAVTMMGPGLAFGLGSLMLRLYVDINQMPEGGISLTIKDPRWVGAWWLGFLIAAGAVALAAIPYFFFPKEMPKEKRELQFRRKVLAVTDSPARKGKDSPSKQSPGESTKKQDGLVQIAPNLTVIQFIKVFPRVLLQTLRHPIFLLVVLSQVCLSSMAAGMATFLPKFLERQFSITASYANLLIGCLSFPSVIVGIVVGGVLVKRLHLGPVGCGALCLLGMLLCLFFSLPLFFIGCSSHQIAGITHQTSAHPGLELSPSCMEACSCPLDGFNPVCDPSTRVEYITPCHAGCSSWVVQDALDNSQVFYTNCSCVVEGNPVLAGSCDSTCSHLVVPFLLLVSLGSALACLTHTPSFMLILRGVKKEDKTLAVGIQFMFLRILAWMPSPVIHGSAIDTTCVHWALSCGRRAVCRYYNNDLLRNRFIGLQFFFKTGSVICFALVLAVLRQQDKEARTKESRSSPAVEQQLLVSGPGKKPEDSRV
Protocol: (§2) Additionally, compound 760 was tested for its capability to act as a transporter substrate for various transporters, and was not found to be a transporter substrate for any of the tested transporters.

[10] = biological target: OCT2 (Homo sapiens, UniProt O15244); assay: Transporter substrate, OCT2; format: in vitro ADME; settings: role: substrate
OCT2, sequence (O15244 whole entry): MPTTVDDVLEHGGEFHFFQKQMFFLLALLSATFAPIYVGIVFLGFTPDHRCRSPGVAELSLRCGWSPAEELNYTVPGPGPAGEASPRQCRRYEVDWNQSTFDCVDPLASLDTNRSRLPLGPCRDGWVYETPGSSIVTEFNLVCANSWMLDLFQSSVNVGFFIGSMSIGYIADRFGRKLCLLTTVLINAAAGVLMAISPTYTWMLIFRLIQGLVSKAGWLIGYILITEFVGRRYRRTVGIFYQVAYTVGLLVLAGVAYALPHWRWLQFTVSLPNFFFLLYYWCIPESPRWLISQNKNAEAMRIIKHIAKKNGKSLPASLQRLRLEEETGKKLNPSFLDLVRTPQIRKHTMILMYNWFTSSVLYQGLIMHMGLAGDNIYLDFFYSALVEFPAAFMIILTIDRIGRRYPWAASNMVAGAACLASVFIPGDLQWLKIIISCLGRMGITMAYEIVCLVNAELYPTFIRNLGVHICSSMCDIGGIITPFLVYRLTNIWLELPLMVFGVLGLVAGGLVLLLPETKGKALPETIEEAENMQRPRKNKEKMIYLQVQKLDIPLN
Protocol: as §2

[11] = tested on: rats; assay: Chronic 5-day BID exposure; format: in vivo, rat; settings: up to 300 mg/kg BID, oral

SMILES: COC[C@@H](CO)NC(=O)Cc1cc(Sc2c(Cl)cc(F)cc2C(C)C)ccc1F [Compound 415]
Spontaneous activity of human sensory neurons [1]: significantly reduced

IC50 ([2]; read-out: IC50 for inhibition of current induced AP responses): ~500 nM
SMILES: Cc1cn(-c2ccc(F)c(CC(=O)NCC(C)(C)O)c2)c2c(Cl)cc(Cl)cc12 [Compound 421-6]
Inhibition of current induced AP response ([2]; 100 nM): 10.1±3.4%
Inhibition of current induced AP response ([2]; 500 nM): 51.2±8.4%
Inhibition of AP response to current ([2]; 2 μM): 77.7±5.6%
Effect on capsaicin induced tetanic action potential burst [3]: alleviates the capsaicin induced tetanic action potential burst at levels below EC50; also recorded: reversible inhibition

IC50 [5]: 5000 nM
Modified Irwin FOB [6]: no effects up to 300 mg/kg
SMILES: O=C(Cc1cncc(-n2cc(Cl)c3cc(Cl)cc(Cl)c32)c1)N[C@@H]1COC[C@H]1O [Compound 661]
Reversal of weight bearing changes [4]: 44%

SMILES: O=C(Cc1nccc(-n2cc(Cl)c3cc(Cl)cc(Cl)c32)n1)NC1COCC1O (centres unmarked) [Compound 760]
Effect on Bradykynin B1-2 [7]: no effect
IC50 [8]: 2990 nM
OATP2B1 substrate [9]: not a transporter substrate
OCT2 substrate [10]: not a transporter substrate
Gross safety, 5-day BID [11]: did not raise any gross safety concerns
